The compounds below were run against T1, recombinant human ACC2 (Homo sapiens, UniProt O00763) (assay: Measurement of inhibitory activity on human ACC2 (MALDI-TOF MS, acetyl CoA to malonyl CoA conversion)). Conditions: inhibition activity on human ACC2, Table 84; read-out: IC50.
T1 construct: a cDNA encoding human ACC2 (27-2458) was cloned from human kidney cDNA library (Clontech); His-tag (N); made in house; host or cells: Sf-9 insect cells (Bac-to-Bac baculovirus)
Type: biochemical

T1 sequence (O00763 27-2458): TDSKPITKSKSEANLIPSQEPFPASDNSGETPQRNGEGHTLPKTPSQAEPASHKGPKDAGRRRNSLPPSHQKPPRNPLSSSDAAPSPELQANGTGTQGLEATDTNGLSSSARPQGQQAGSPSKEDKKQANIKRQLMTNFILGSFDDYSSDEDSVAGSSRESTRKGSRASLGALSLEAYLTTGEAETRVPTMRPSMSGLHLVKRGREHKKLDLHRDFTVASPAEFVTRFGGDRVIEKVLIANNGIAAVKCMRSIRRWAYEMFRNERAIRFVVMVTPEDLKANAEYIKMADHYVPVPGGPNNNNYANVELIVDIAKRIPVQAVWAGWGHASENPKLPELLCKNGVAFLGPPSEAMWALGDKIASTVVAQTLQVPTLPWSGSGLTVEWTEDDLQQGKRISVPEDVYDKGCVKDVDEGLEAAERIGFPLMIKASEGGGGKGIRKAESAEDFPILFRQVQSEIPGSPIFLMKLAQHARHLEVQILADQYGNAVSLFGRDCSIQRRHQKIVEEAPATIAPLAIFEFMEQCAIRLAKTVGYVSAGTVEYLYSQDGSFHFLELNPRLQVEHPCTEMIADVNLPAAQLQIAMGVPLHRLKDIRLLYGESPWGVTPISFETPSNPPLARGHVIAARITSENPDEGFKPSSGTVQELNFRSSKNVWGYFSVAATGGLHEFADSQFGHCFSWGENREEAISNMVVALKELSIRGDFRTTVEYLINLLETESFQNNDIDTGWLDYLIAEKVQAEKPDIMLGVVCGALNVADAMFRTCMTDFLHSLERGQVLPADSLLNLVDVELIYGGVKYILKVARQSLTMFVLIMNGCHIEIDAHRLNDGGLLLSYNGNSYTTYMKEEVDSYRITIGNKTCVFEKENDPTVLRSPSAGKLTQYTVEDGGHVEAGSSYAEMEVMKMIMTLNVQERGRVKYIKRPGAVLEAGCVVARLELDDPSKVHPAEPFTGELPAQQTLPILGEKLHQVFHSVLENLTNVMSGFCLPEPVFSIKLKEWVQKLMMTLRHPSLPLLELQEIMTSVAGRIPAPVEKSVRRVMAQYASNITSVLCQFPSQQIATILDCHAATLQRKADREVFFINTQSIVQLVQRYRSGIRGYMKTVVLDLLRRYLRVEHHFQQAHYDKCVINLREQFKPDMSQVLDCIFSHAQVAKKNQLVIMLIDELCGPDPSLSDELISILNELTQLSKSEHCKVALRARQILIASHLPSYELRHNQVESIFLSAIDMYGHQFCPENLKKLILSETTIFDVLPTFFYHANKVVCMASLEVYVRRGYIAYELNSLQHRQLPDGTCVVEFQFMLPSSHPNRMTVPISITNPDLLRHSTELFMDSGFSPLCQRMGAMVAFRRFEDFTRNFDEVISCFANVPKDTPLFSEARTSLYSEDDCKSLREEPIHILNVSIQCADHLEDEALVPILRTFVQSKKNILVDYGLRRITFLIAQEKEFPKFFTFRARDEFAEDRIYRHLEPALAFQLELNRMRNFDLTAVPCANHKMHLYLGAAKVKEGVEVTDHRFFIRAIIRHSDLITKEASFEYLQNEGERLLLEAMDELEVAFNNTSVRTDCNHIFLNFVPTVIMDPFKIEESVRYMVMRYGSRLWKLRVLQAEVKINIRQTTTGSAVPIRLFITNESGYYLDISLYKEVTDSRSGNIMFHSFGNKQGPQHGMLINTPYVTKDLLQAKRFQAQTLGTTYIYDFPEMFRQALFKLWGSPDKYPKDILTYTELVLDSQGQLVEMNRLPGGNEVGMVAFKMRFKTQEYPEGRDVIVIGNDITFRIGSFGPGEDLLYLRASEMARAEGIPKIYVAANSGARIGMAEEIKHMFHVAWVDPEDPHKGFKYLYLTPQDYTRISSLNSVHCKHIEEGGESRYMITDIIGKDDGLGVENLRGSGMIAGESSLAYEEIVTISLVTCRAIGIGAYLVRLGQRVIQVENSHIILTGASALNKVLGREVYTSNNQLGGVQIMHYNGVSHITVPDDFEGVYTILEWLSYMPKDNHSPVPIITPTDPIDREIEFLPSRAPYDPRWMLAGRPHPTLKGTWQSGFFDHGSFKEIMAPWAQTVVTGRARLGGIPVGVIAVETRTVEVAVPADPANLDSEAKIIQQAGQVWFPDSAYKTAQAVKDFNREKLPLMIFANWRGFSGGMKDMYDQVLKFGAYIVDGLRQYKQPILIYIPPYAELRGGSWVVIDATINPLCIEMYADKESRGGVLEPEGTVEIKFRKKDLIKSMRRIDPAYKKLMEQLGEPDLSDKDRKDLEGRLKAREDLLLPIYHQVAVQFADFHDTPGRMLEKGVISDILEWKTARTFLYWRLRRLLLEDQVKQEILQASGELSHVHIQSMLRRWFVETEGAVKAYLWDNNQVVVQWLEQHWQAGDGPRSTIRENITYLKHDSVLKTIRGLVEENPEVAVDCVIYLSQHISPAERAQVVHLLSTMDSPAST

Compound	IC50
CC(=O)N[C@@H](C)/C=C/c1ccc(Oc2ccc3c(c2)OCCC3)nc1 [Compound I-449]	0.13 µM
CC(=O)N[C@@H](C)/C=C/c1ccc(Oc2ccc(OCc3ccccc3)cc2Cl)nc1 [Compound I-450]	0.06 µM
CC(=O)N[C@@H](C)/C=C/c1ccc(Oc2ccc(Oc3ccc([N+](=O)[O-])cc3)cc2Cl)nc1 [Compound I-451]	0.025 µM
CC(=O)N[C@@H](C)/C=C/c1ccc(Oc2ccc(Oc3ccc(C#N)cc3)cc2Cl)nc1 [Compound I-452]	0.042 µM
CC(=O)N[C@@H](C)/C=C/c1ccc(Oc2ccc(Oc3cncs3)cc2Cl)nc1 [Compound I-453]	0.73 µM
CC(=O)N[C@@H](C)/C=C/c1ccc(Oc2ccc(-c3ncc(F)cn3)cc2Cl)nc1 [Compound I-454]	0.037 µM
CC(=O)N[C@@H](C)/C=C/c1ccc(Oc2ccc3nc(C)sc3c2Cl)nc1 [Compound I-455]	0.03 µM
CC(=O)N[C@@H](C)/C=C/c1ccc(Oc2ccc3c(C)noc3c2)nc1 [Compound I-456]	0.45 µM
CC(=O)N[C@@H](C)/C=C/c1ccc(Oc2cc(C)c(C)cc2Cl)nc1 [Compound I-457]	0.31 µM
CCCc1cc(Cl)c(Oc2ccc(/C=C/[C@H](C)NC(C)=O)cn2)cc1Cl [Compound I-458]	0.026 µM
CCCc1ccc(Oc2ccc(/C=C(\F)[C@H](C)NC(C)=O)cn2)c(Cl)c1 [Compound I-459]	0.012 µM
C/C=C/c1ccc(Oc2ccc(/C=C/[C@H](C)NC(C)=O)cn2)c(Cl)c1 [Compound I-460]	0.13 µM
CC(=O)N[C@@H](C)/C=C/c1ccc(Oc2ccc3nc(C)oc3c2)nc1 [Compound I-461]	1.5 µM
CC(=O)N[C@@H](C)/C=C/c1ccc(Oc2ccc(Oc3ccccc3)cc2Cl)nc1 [Compound I-462]	0.019 µM
CC(=O)N[C@@H](C)/C=C/c1ccc(Oc2ccc(Oc3ccccn3)cc2Cl)nc1 [Compound I-463]	0.068 µM
CC(=O)N[C@@H](C)/C=C/c1ccc(Oc2ccc(Oc3cccnc3)cc2Cl)nc1 [Compound I-464]	0.12 µM
CC(=O)N[C@@H](C)/C=C/c1ccc(Oc2ccc(Oc3ccncc3)cc2Cl)nc1 [Compound I-465]	0.12 µM
CC(=O)N[C@@H](C)/C=C/c1ccc(Oc2ccc3c(c2Cl)CCC3(F)F)nc1 [Compound I-466]	0.016 µM
CCCC(F)(CC)c1ccc(Oc2ccc(/C=C/[C@H](C)NC(C)=O)cn2)c(Cl)c1 (stereo partly shown) [Compound I-467]	0.043 µM
CC(=O)N[C@@H](C)/C=C/c1ccc(Oc2ccc3c(c2)CCN(CC2CC2)C3=O)nc1 [Compound I-468]	0.09 µM
CCCc1cccc(Oc2ccc(/C=C/[C@H](C)NC(C)=O)cn2)c1Cl [Compound I-469]	0.036 µM
CCCc1cc(Cl)cc(Oc2ccc(/C=C/[C@H](C)NC(C)=O)cn2)c1 [Compound I-470]	0.23 µM
CCOc1ccc(Oc2ccc(/C=C(\F)[C@H](C)NC(C)=O)cn2)c(Cl)c1 [Compound I-471]	0.016 µM
CC(=O)N[C@@H](C)/C=C/c1ccc(Oc2ccc3c(c2)OCCO3)nc1 [Compound I-472]	0.037 µM
CCC(F)(F)c1ccc(Oc2cnc(/C=C/[C@H](C)NC(C)=O)cn2)c(Cl)c1 [Compound I-473]	0.039 µM

Compound	IC50
CCc1nc2ccc(Oc3ccc(/C=C/[C@H](C)NC(C)=O)cn3)c(Cl)c2s1 [Compound I-474]	0.0097 µM
CCCc1ccc(Cl)c(Oc2ccc(/C=C/[C@H](C)NC(C)=O)cn2)c1 [Compound I-475]	0.17 µM
C/C=C(\CC)c1ccc(Oc2ccc(/C=C/[C@H](C)NC(C)=O)cn2)c(Cl)c1 [Compound I-476]	0.24 µM
CC(=O)N[C@@H](C)/C=C/c1ccc(Oc2ccc3nc(C(C)C)sc3c2Cl)nc1 [Compound I-477]	0.0069 µM
CC(=O)N[C@@H](C)/C=C/c1ccc(Oc2cc3sc(C)nc3cc2Cl)nc1 [Compound I-478]	0.55 µM
CC(=O)N[C@@H](C)/C=C/c1ccc(Oc2cc3c(cc2Cl)OCC3)nc1 [Compound I-479]	0.44 µM
CCN1CCc2cc(Oc3ccc(/C=C/[C@H](C)NC(C)=O)cn3)ccc2C1=O [Compound I-480]	0.52 µM
CC(=O)N[C@@H](C)/C=C/c1ccc(Oc2ccc3nc(C(F)(F)F)sc3c2)nc1 [Compound I-481]	0.013 µM
CC(=O)N[C@@H](C)/C=C/c1ccc(Oc2ccc3c(c2)OC(F)(F)C(F)(F)O3)nc1 [Compound I-482]	0.0081 µM
CC(=O)N[C@@H](C)/C=C/c1ccc(Oc2ccc3c(c2)OC(F)(F)O3)nc1 [Compound I-483]	0.052 µM
CSc1ncc(Oc2ccc(/C=C/[C@H](C)NC(C)=O)cn2)cn1 [Compound I-484]	0.16 µM
CCCc1cc(Oc2ccc(/C=C/[C@H](C)NC(C)=O)cn2)ccc1Cl [Compound I-485]	0.13 µM
CC(=O)N[C@@H](C)/C=C/c1ccc(Oc2ccc3c(C)nsc3c2)nc1 [Compound I-486]	0.11 µM
CCc1nc2cc(Cl)c(Oc3ccc(/C=C/[C@H](C)NC(C)=O)cn3)cc2s1 [Compound I-487]	0.038 µM
CC(=O)N[C@@H](C)/C=C/c1ccc(Oc2cc3sc(C(C)C)nc3cc2Cl)nc1 [Compound I-488]	0.011 µM
CCOc1ccc(Oc2ccc(/C=C/[C@H](C)NC(C)=O)nc2)c(Cl)c1 [Compound I-489]	0.55 µM
CC(=O)N[C@@H](C)/C=C/c1ccc(Oc2ccc(OCC3CC3)cc2Cl)cn1 [Compound I-490]	0.042 µM
CC(=O)N[C@@H](C)/C=C/c1ccc(Oc2ccc3nc(C(F)(F)F)sc3c2Cl)nc1 [Compound I-491]	0.0058 µM
CC(=O)N[C@@H](C)/C=C/c1ccc(Oc2cnc(OCC3CC3)nc2)nc1 [Compound I-492]	0.08 µM
CC(=O)N[C@@H](C)/C=C/c1ccc(Oc2ccc(-c3ncc(F)cn3)cc2)nc1 [Compound I-493]	0.15 µM
CC(=O)N[C@@H](C)/C=C/c1ccc(Oc2ccc(C3CC3C)cc2Cl)nc1 (stereo partly shown) [Compound I-494]	0.014 µM
CCc1nc2ccc(Oc3ccc(/C=C/[C@H](C)NC(C)=O)cn3)cc2o1 [Compound I-495]	0.021 µM
CCCc1ccc(Oc2ccc(/C=C/[C@H](C)NC(C)=O)nc2)c(Cl)c1 [Compound I-496]	0.21 µM
CC(=O)N[C@@H](C)/C=C/c1cnc(Oc2ccc(C(C)(C)C)cc2Cl)cn1 [Compound I-497]	0.051 µM
CC(=O)N[C@@H](C)/C=C/c1ccc(Oc2ccc3c(c2)CC(C)(C)O3)nc1 [Compound I-498]	0.027 µM

Compound	IC50
CC(=O)N[C@@H](C)/C=C/c1ccc(Oc2cnc(N3CCCCC3)nc2)nc1 [Compound I-499]	0.096 µM
CC(=O)N[C@@H](C)/C=C/c1ccc(Oc2ccc3nc(C(C)C)oc3c2)nc1 [Compound I-500]	0.0089 µM
CC(=O)N[C@@H](C)/C=C/c1ccc(Oc2ccc3sc(C)nc3c2Cl)nc1 [Compound I-501]	0.031 µM
CC(=O)N[C@@H](C)/C=C/c1ccc(Oc2ccc3nc(C(C)(C)C)sc3c2Cl)nc1 [Compound I-502]	0.0071 µM
CC(=O)N[C@@H](C)/C=C/c1ccc(Oc2ccc(-c3ccccc3)c(Cl)c2)nc1 [Compound I-503]	0.0051 µM
CC(=O)N[C@@H](C)/C=C/c1ccc(Oc2ccc3nc(C(C)(C)C)sc3c2)nc1 [Compound I-504]	0.0065 µM
CCOc1ccc(OCc2cccc(/C=C/[C@H](C)NC(C)=O)n2)c(Cl)c1 [Compound I-505]	0.045 µM
CCOc1ccc(OCc2cccc(/C=C/[C@H](C)NC(C)=O)c2)c(Cl)c1 [Compound I-506]	0.0082 µM
CC(=O)N[C@@H](C)/C=C/c1ccc(Oc2cc3c(cc2Cl)OC(C)(C)C3)nc1 [Compound I-507]	0.043 µM
CC(=O)N[C@@H](C)/C=C/c1cnc(Oc2cc3c(cc2Cl)OC(C)(C)C3)cn1 [Compound I-508]	0.23 µM
CC(=O)N[C@@H](C)/C=C/c1ccc(Oc2ccc3nc(C)sc3c2C#N)nc1 [Compound I-509]	0.023 µM
CC(=O)N[C@@H](C)/C=C/c1cnc(Oc2ccc3nc(C(F)(F)F)sc3c2Cl)cn1 [Compound I-510]	0.006 µM
CC(=O)N[C@@H](C)/C=C/c1ccc(Oc2ccc3c(c2Cl)CCN(CC2CC2)C3=O)nc1 [Compound I-511]	0.088 µM
CC(=O)N[C@@H](C)/C=C/c1ccc(Oc2ccc(CC(C)(C)C)cc2Cl)cn1 [Compound I-512]	0.14 µM
CC(=O)N[C@@H](C)/C=C/c1ccc(Oc2ccc(C3=CCC4(CC3)CC4)cc2Cl)cn1 [Compound I-513]	0.027 µM
CC(=O)N[C@@H](C)/C=C/c1ccc(Oc2ccc(-c3ccc(F)cc3)cc2)nc1 [Compound I-514]	0.096 µM
CC(=O)N[C@@H](C)/C=C/c1ccc(Oc2ccc(-c3ccc(C#N)cc3)cc2)nc1 [Compound I-515]	0.86 µM
CC(=O)N[C@@H](C)/C=C/c1ccc(Oc2ccc(N3CCCCC3)nc2)nc1 [Compound I-516]	0.17 µM
CC(=O)N[C@@H](C)/C=C/c1ccc(Oc2cnc(N3CCC(F)(F)CC3)nc2)nc1 [Compound I-517]	0.047 µM
CC(=O)N[C@@H](C)/C=C/c1ccc(Oc2ccc3c(c2)C(=O)N(CC2CC2)CC3)nc1 [Compound I-518]	0.8 µM
CC(=O)N[C@@H](C)/C=C/c1ccc(Oc2ccc3c(c2)OC(C)(C)C3)nc1 [Compound I-519]	0.059 µM
CC(=O)N[C@@H](C)/C=C/c1ccc(Oc2cnc(N3CCC(F)CC3)nc2)nc1 [Compound I-520]	0.075 µM
CCOc1ccc(Oc2ccc(/C=C/C(C)CNC(C)=O)cn2)c(Cl)c1 (stereo not shown) [I’-1]	0.56 µM

Source: patent US20150246938A1, “NOVEL OLEFIN DERIVATIVE” (SHIONOGI & CO., LTD., priority 2011, published 2015)
